Source: patent US20210039089A1, “DEVICES, KITS, AND METHODS FOR LABEL-FREE SEPARATION AND SUBTYPING OF RARE CELLS” (University of Georgia Research Foundation, Inc., priority 2019, published 2021)
“Also recorded” adds a separate entry of the source.

Columns and labels:
[1] = tested on: MDA-MB-231 breast cancer cell line; assay: MChip cancer cell migration assay, cells loaded in channel #1; format: cell-based
Description: The microfluidic device was pre-filled with FBS-free cell culture medium and incubated at 37° C. for 1 hour. All of the channel inlet/outlet, except cell loading inlets (top/bottom channel #1) and middle channel outlet, are sealed with tape before cell loading. Cancer cells were collected from culture plates with 0.25% Trypsin-EDTA (ThermoFisher, Waltham, Mass.) and pelleted by centrifugation at 500 g for 5 minutes. Then, the cells were re-suspended in FBS-free culture medium, DMEM or RPMI (ThermoFisher, Waltham, Mass.), to a concentration of 5×10^5 cells/mL. 50 μL of cell suspension was pipetted into the cell loading channels. One syringe pump (Chemyx, Stafford, Tex.) was connected to the middle channel outlet and the flow rate was 5 μL/min. When all entrances of migration channels were filled with cancer cells, the pump was stopped and the cell suspension was replaced with FBS-free cell culture medium. The device was then placed in the incubator (37° C., 5% CO2) for 40 min to ensure the cell adhesion to the glass slide. Then, the tape/covers were removed from the cell loading outlet and middle inlet, and these inlets were connected with syringe pumps. The FBS-free medium flowed into the cell loading channel while the middle channel was filled with medium containing 10% FBS. The flow rates for 3 channels were 0.1 μL/min. The entire chip was placed in the cell culture incubator (37° C., 5% CO2) for about 24 hours. […]
Since migration time^14, 21 and FBS concentration were key parameters that determined the final position of individual cells, a series experiment were conducted to test the influence of different FBS concentrations (0%, 5%, and 10%) and various working time (6 hr, 12 hr, and 24 hr). […] It is noteworthy that cell migratory behaviors were also determined by the glass coating method, for example, coating using different concentrations of collagen and poly-L-Lysine (FIG. 7). […]

MDA-MB-231 cancer cells = assay: MChip purification assay, cells loaded in middle channel, cancer cell readout; format: cell-based; conditions: FMLP vs control; FIG. 14
Description: (§1) WBCs and MDA-MB-231 cancer cells were mixed at a 1:1 ratio in FBS-free DMEM medium and loaded to the top edge of the middle/main channel. The positions of these cells were determined by an optimized flow rate and open/close of channel inlets/outlets. Briefly, the microfluidic device was filled with cell culture medium and incubator at 37° C. for one hour. Sealed all the inlet/outlets except cell loading inlet (middle/main channel) and channel #1 outlet (top). 50 μL cell mixture was loaded into cell loading inlet and the cell alignment was achieved using a syringe pump (5 μL/min) that connected to the channel #1 outlet (top). Then replaced the cell suspension with FBS-free medium and incubated for 30 minutes. The FBS-free medium flowed into the middle channel, the top channel (first outer channel) #1 was filled with medium containing 10% FBS, and the bottom channel (second outer channel) […] was filled with FBS-free medium containing FMLP (200 ng/mL). The flow rates for 3 channels were 0.1 μL/min. The cells were incubated at 37° C. for 24 hours.
(§2) To retrieve the cancer cells of heterogeneously migratory properties with low WBCs contamination, the cell loading channel and “chemos” loading channel (middle, #9) were swapped: cells was loaded to the top part of the middle channel (#9) while the serum was loaded into side channels (top/bottom, #1). […]

WBCs [2] = assay: MChip purification assay, cells loaded in middle channel, WBC readout; format: cell-based, human
Description: as §1
The blood sample was drawn from multiple healthy donors in compliance with the applicable federal, state, and institutional policies and procedures in the United States. Healthy human blood samples were obtained from the Clinical and Translational Research Unit of the University of Georgia with informed consent according to an IRB-approved protocol. The collected blood samples were stored in vacutainer K2-EDTA (BD, Franklin Lakes, N.J.). Complete blood count (CBC) reported was obtained to determine the number & subtypes of WBCs. The blood processing with iFCS was discussed in our previous work (Zhao, et al., Lab on a Chip 2019, 19 (10), 1860-76, incorporated by reference above).^10
as §2

WBCs [3] = assay: MChip WBC migration assay, cells loaded in channel #1; format: cell-based, human
Description: FIGS. 6A-6H illustrate purification of circulating tumor cells isolated from human blood using iFCS separation and an embodiment of a device of the present disclosure. FIG. 6A is images validation of combination effect of using iFCS and a device of the present disclosure with cultured cancer cells spiked into healthy blood. Left, an iFCS device was used to recover more than 99.2% spiked cancer cells and deplete many WBCs (˜500 cells per mL). Collected cancer cells and WBCs were injected into the “MChip” of the present disclosure to further purify CTC by removing most remaining WBCs based on different migratory abilities, as shown in the right image. Migratory cancer cells could be retrieved with high purity. FIG. 6B is a graph comparing migratory abilities for cells before and after iFCS processing. […] FIG. 6C illustrates WBC (n=-5000, channel #1 loading) migration assays under control (FBS only), WBC chemo-attractant (FM LP) and WBC chemo-repellent (Slit2). FBS (10%) or Slit2 (5 μg/mL) were loaded into the middle channel (channel #9), while FMLP (200 ng/mL) were filled in the […]. Only the WBCs of >200 μm Y position were counted. […] Right, images of WBCs 24-hour migration assay using Slit2 (5 μg/mL) in 10% FBS. Flow rate v=0.1 μL/min. WBCs were stained with cell tracker red. Fluorescence images were taken at 0 hour and 24 hours. Circles indicate the migratory WBCs. FIG. 6D is a graph illustrating breast cancer cells, MDA-MB-231, loaded into channel #1 with Slit2 (5 μg/mL) in 10% FBS in the middle channel. Flow rate v=0.1 μL/min. The graph indicates positions of MDA-MB-231 and the rectangular symbols indicate the mean value. FIG. 6E is an image of WBCs (red) and MDA-MB-231 (green) mixture (1:1) migration assay with middle channel (channel #9) filled with 10% FBS and Slit2 (5 μg/mL). At 24 hours, most of the migratory cancer cells moved into the migration/collection channels with ˜2 WBCs contamination. FIG. 6F illustrates a WBC migration assay using FBS, FMLP, and Slit2. WBCs (n=˜2500) loaded into the top edge of the middle channel. […]

[4] = 1:1 mixture, 10% FBS top channel, 0% FBS middle, 0% FBS + FMLP (200 ng/mL) bottom, 24 hours

**Q.** With collagen as the molecule, how does the “average migration distance by glass coating method” value ([1]; collagen vs poly-L-Lysine coating at different concentrations, FIG. 7) read?
**A.** largest

**Q.** Which “effect on MDA-MB-231 migration” value (MDA-MB-231 cancer cells) does the source give for fMet-Leu-Phe [FMLP] here?
**A.** without a negative effect

**Q.** And the “WBCs moved to the bottom part” value (WBCs [2]; [4])?
**A.** 88.3%

**Q.** And the “WBCs stayed in the middle loading channel” value (WBCs [2]; [4])?
**A.** 11.2%

**Q.** And the “effect on WBC migration direction” value (WBCs [2]; FMLP in bottom side channel, WBCs loaded at top edge of middle channel, FIG. 6F)?
**A.** attract the majority of WBCs to the bottom part; also recorded: significant performance in inducing cells toward the bottom channel

B1: slit2: Slit guidance ligand 2, chemo-repellent for WBCs, neutrophil inhibitor (protein, UniProt O94813 31-1529, looked up)
Slit homolog 2 protein: QCSCSGSTVDCHGLALRSVPRNIPRNTERLDLNGNNITRITKTDFAGLRHLRVLQLMENKISTIERGAFQDLKELERLRLNRNHLQLFPELLFLGTAKLYRLDLSENQIQAIPRKAFRGAVDIKNLQLDYNQISCIEDGAFRALRDLEVLTLNNNNITRLSVASFNHMPKLRTFRLHSNNLYCDCHLAWLSDWLRQRPRVGLYTQCMGPSHLRGHNVAEVQKREFVCSGHQSFMAPSCSVLHCPAACTCSNNIVDCRGKGLTEIPTNLPETITEIRLEQNTIKVIPPGAFSPYKKLRRIDLSNNQISELAPDAFQGLRSLNSLVLYGNKITELPKSLFEGLFSLQLLLLNANKINCLRVDAFQDLHNLNLLSLYDNKLQTIAKGTFSPLRAIQTMHLAQNPFICDCHLKWLADYLHTNPIETSGARCTSPRRLANKRIGQIKSKKFRCSAKEQYFIPGTEDYRSKLSGDCFADLACPEKCRCEGTTVDCSNQKLNKIPEHIPQYTAELRLNNNEFTVLEATGIFKKLPQLRKINFSNNKITDIEEGAFEGASGVNEILLTSNRLENVQHKMFKGLESLKTLMLRSNRITCVGNDSFIGLSSVRLLSLYDNQITTVAPGAFDTLHSLSTLNLLANPFNCNCYLAWLGEWLRKKRIVTGNPRCQKPYFLKEIPIQDVAIQDFTCDDGNDDNSCSPLSRCPTECTCLDTVVRCSNKGLKVLPKGIPRDVTELYLDGNQFTLVPKELSNYKHLTLIDLSNNRISTLSNQSFSNMTQLLTLILSYNRLRCIPPRTFDGLKSLRLLSLHGNDISVVPEGAFNDLSALSHLAIGANPLYCDCNMQWLSDWVKSEYKEPGIARCAGPGEMADKLLLTTPSKKFTCQGPVDVNILAKCNPCLSNPCKNDGTCNSDPVDFYRCTCPYGFKGQDCDVPIHACISNPCKHGGTCHLKEGEEDGFWCICADGFEGENCEVNVDDCEDNDCENNSTCVDGINNYTCLCPPEYTGELCEEKLDFCAQDLNPCQHDSKCILTPKGFKCDCTPGYVGEHCDIDFDDCQDNKCKNGAHCTDAVNGYTCICPEGYSGLFCEFSPPMVLPRTSPCDNFDCQNGAQCIVRINEPICQCLPGYQGEKCEKLVSVNFINKESYLQIPSAKVRPQTNITLQIATDEDSGILLYKGDKDHIAVELYRGRVRASYDTGSHPASAIYSVETINDGNFHIVELLALDQSLSLSVDGGNPKIITNLSKQSTLNFDSPLYVGGMPGKSNVASLRQAPGQNGTSFHGCIRNLYINSELQDFQKVPMQTGILPGCEPCHKKVCAHGTCQPSSQAGFTCECQEGWMGPLCDQRTNDPCLGNKCVHGTCLPINAFSYSCKCLEGHGGVLCDEEEDLFNPCQAIKCKHGKCRLSGLGQPYCECSSGYTGDSCDREISCRGERIRDYYQKQQGYAACQTTKKVSRLECRGGCAGGQCCGPLRSKRRKYSFECTDGSSFVDEVEKVVKCGCTRCVS
**Q.** How did the “cancer cells squeezed into the migration channel” value ([1]; 5 μg/mL slit2 in 10% FBS in middle channel, 0.1 μL/min) turn out when B1 was run?
**A.** 85%

**Q.** What about the “effect on migratory behavior of MDA-MB-231 cancer cells” value ([1]; 5 μg/mL slit2 in 10% FBS in middle channel, P=0.004) of the same molecule?
**A.** slightly compromise

**Q.** And the “WBCs contamination in migration/collection channels” value (WBCs [3]; WBCs and MDA-MB-231 mixture (1:1), middle channel 10% FBS and Slit2 (5 μg/mL), 24 hours)?
**A.** ~2 WBCs

**Q.** What about the “loaded WBCs remaining in the loading channel with non-migratory cells” value (WBCs [3]; middle channel 10% FBS and 5 μg/mL slit2) of the same molecule?
**A.** 99.6%

**Q.** And the “WBCs that left the cell loading channel (#1)” value (WBCs [3]; middle channel loaded with 10% FBS and 5 μg/mL slit2, 24 hours, 0.1 μL/min)?
**A.** 0.4%
